In US20230129438A1, “IMMUNOMODULATING IMINE-OXAZOLINE AZALIDES” (Zoetis Services LLC, priority 2020, published 2023):
In brackets after ≈: the same amount, converted by molar mass.

Legend:
[1] = tested on: TNF-α; assay: Bovine whole blood assay, LPS-induced TNF-α; format: cell-based; conditions: LPS 1 μg/mL
Experimental: (§1) (protected from light) for 30 minutes.

[2] = tested on: IL-1β; assay: Bovine whole blood assay, IL-1β; format: cell-based; conditions: drug concentration giving overstimulation of IL-1β over LPS (cellular toxicity signal)
Experimental: as §1

[3] = tested on: IL-6; assay: Bovine whole blood assay, LPS-induced IL-6; format: cell-based; conditions: LPS 1 μg/mL
[4] = tested on: P. multocida 46572; assay: In vivo mouse lung infection challenge model (murine efficacy model); conditions: 20 mg/kg subcutaneous, CD-1 mice, intranasal challenge, to Day 10; approximate (~%), harmonized relative to vehicle and M9
[5] = tested on: P. multocida; assay: Murine P. multocida intranasal challenge study with lung tissue RNA sequence analysis; format: in vivo, mouse; conditions: placebo 0%
Experimental: In one murine P. multocida intranasal challenge study, mice were administered tulathromycin (16 mg/kg; T02), M9 (32 mg/kg; T03), or ceftiofur (9 mg/kg; T04) by subcutaneous injection 18 hours after bacterial challenge (5×10^3 CFU/mouse) for lung tissue RNA sequence analysis. Survival at Day 7 was about 80%, 50%, and 90% for T02, T03, and T04, respectively, compared to placebo at 0%. Differential gene expression from total lung tissue RNA sequence analysis indicated at least 226 unique genes were up or down regulated (with significance) for T03. Output from ingenuity pathway analysis of these unique genes predicted major upstream regulators of the involved pathways. Data was analyzed based on the number of genes being modulated in the same direction that were associated with a given upstream regulator. An activation z-score of 2 or greater is considered significant and the direction change is indicated by + (activated) or − (inhibited). The top 5 pathways included: IL-9 signaling, glucocorticoid receptor signaling, prolactin signaling, JAK STAT signaling, and IL-17 signaling. The top 6 upstream regulators (activation z-score) included: lipopolysaccharide (−6.725), TNF (−4.669), IFNγ (−5.759), IL-1β (−5.947), STAT1 (−2.787), and poly rI:rC-RNA (−5.289). Even though this study was run in the murine model, the top upstream regulators identified as being modulated by M9 include an almost ubiquitous overlap with the pathways identified in the natural disease study as being key mediators in BRD, and therefore is modulating highly relevant pathways in BRD pathobiology.

[6] = tested on: M. haemolytica; assay: In-vitro MIC model, M. haemolytica; format: cell-based
[7] = tested on: P. multocida; assay: In-vitro MIC model, P. multocida; format: cell-based
[8] = tested on: H. somni; assay: In-vitro MIC model, H. somni; format: cell-based; conditions: lung isolates at necropsy, natural BRD study, H. somni (25)
[9] = tested on: bovine respiratory disease (BRD); assay: Natural bovine respiratory disease study; format: in vivo, beef calves; conditions: T04, dose not given, 14-day observation; saline 43%
[10] = tested on: M. haemolytica (strain: OSU-012103-BHI); assay: Bovine M. haemolytica intratracheal lung challenge model; format: in vivo
[11] = lung isolates at necropsy, natural BRD study, M. haemolytica (116)
[12] = lung isolates at necropsy, natural BRD study, P. multocida (33)

CC[C@H]1OC(=O)[C@H](C)[C@@H](O[C@H]2C[C@@](C)(OC)[C@](O)(CNCC(C)C)[C@H](C)O2)[C@H](C)[C@@H](O[C@@H]2O[C@H](C)C[C@H]3[C@H]2OC(=Nc2ccc(OC)nc2)N3C)[C@](C)(O)C[C@@H](C)CN[C@H](C)[C@@H](O)[C@]1(C)O (mixture of isomers) [Example A-28, (E/Z)-(2R,3S,4R,5R,8R,10R,11R,12S,13S,14R)-2-ethyl-3,4,10-trihydroxy-13-(((2R,4R,5S,6S)-5-hydroxy-5-((isobutylamino)methyl)-4-methoxy-4,6-dimethyltetrahydro-2H-pyran-2-yl)oxy)-11-(((3aR,4S,6R,7aS)-2-((6-methoxypyridin-3-yl)imino)-1,6-dimethylhexahydro-2H-pyrano[4,3-d]oxazol-4-yl)oxy)-3,5,8,10,12,14-hexamethyl-1-oxa-6-azacyclopentadecan-15-one]
IC50 [1]: 8 µM
IL-Iβ OS of LPS [2]: 16 µM
IC50 [3]: 20 µM
% Survival [4]: 53%

CO/N=C(\C(=O)N[C@@H]1C(=O)N2C(C(=O)O)=C(CSC(=O)c3ccco3)CS[C@H]12)c1csc(N)n1 [ceftiofur]
Survival at Day 7 ([5]; 9 mg/kg subcutaneous 18 hours after challenge (T04)): ~90%

CCCN1C[C@H](C)[C@@H](O)[C@](C)(O)[C@@H](CC)OC(=O)[C@H](C)[C@@H](O[C@H]2C[C@@](C)(OC)[C@@H](O)[C@H](C)O2)[C@H](C)[C@@H](O[C@@H]2O[C@H](C)C[C@H](N(C)C)[C@H]2O)[C@](C)(O)C[C@H]1C [gamithromycin, reference compound]
MIC50 [6, 11]: 1 µg/mL (≈ 1.29 µM)
MIC90 [6, 11]: >64 µg/mL
MIC values, range over strains ([6]; the same M. haemolytica screening strains): 0.5 to 1 µg/mL
MIC50 [7, 12]: 1 µg/mL (≈ 1.29 µM)
MIC90 [7, 12]: >64 µg/mL
MIC values, range over strains ([7]; the same P. multocida screening strains): 1 to 2 µg/mL
MIC50 [8]: 0.25 µg/mL (≈ 0.322 µM)
MIC90 [8]: 2 µg/mL (≈ 2.57 µM)
Percent failure (treatment failure) [9]: 29.8%

CCCNC[C@]1(O)[C@H](C)O[C@@H](O[C@H]2[C@H](C)[C@@H](O[C@@H]3O[C@H](C)C[C@H](N(C)C)[C@H]3O)[C@](C)(O)C[C@@H](C)CN[C@H](C)[C@@H](O)[C@](C)(O)[C@@H](CC)OC(=O)[C@@H]2C)C[C@@]1(C)OC [tulathromycin, (2R,3S,4R,5R,8R,10R,11R,12S,13S,14R)-11-(((2S,3R,4S,6R)-4-(dimethylamino)-3-hydroxy-6-methyltetrahydro-2H-pyran-2-yl)oxy)-2-ethyl-3,4,10-trihydroxy-13-(((2R,4R,5S,6S)-5-hydroxy-4-methoxy-4,6-dimethyl-5-((propylamino)methyl)tetrahydro-2H-pyran-2-yl)oxy)-3,5,8,10,12,14-hexamethyl-1-oxa-6-azacyclopentadecan-15-one]
Survival at Day 7 ([5]; 16 mg/kg subcutaneous 18 hours after challenge (T02)): about 80%
Mortality ([10]; T03: 2.5 mg/kg subcutaneous Day −1, M. haemolytica challenge Day 0, saline 4/6): 0/6
IL-6 levels, in words ([10]; bovine M. haemolytica challenge, blood biomarker): significantly reduced
